Results on 123 molecules are retold here after a melting point compilation (Tetko et al.).

For orientation: melting point means the temperature, or range, at which the solid turns liquid. Take `CCOC(=O)c1csc(Nc2ccc(OC)cc2)n1`: the melting point lay within 117 to 119 °C.

`CCC(C)(C)c1ccc(C(=O)O)cc1` yielded a melting point of 103 to 105 °C. For `COc1cc(CN2CCNCC2)cc(OC)c1OC`, the melting point lay within 102 to 104 °C.

The molecule `NNc1ccc([N+](=O)[O-])cc1Cl` returned a melting point of 145 to 147 °C. Under `O=C(O)C=Cc1ccc2ccc(Cl)cc2n1` stands 226 to 228 °C; under `Cc1n[nH]c(C)c1[N+](=O)[O-]`, 121 to 123 °C.

In turn, `O=C1CC(c2ccc(Cl)cc2)N1` (stereo not drawn) showed a melting point of 90 to 92 °C.

As to `CC(Nc1nc2ccccc2s1)C(=O)O` (stereo not drawn), the melting point lay in the range of 259 to 261 °C. The figure for `CN1C(=O)CC(C(=O)O)C1c1cccc(Cl)c1` (stereo not drawn) is 155 to 157 °C; for `CCSc1cc(Br)ccc1C=O` it is 50 to 52 °C; for `NC1CCN(c2ccc(Cl)c(F)c2)C1=O` (stereo not drawn) it is 69 to 71 °C.

Molecule `CC(C)CNC(N)=O` yielded a melting point of 134 to 138 °C. Take `Cn1cc(C=CC(=O)O)c2ccccc21`: the melting point is 139 to 141 °C. Consider `CCCCCCCCCCCC(=O)c1ccc(O)cc1`, for which the melting point was in the range of 71 to 73 °C. The figure for `Cc1[nH]c2ncnn2c(=O)c1CCO` is 267 to 269 °C; for `O=[N+]([O-])c1ccc2[nH]c(-c3cscn3)nc2c1` it is 257 to 259 °C.

Take `N#CCNc1cccc(F)c1`: the melting point lay in the range of 39 to 41 °C. As to `N#CCc1ccc(F)c(Br)c1`, the melting point lay within 35 to 37 °C. The figure for `Clc1ccc2cccc(Br)c2n1` is 112 to 114 °C.

`C=Cc1nc2sc3c(c2c(=O)[nH]1)CCCC3` had a melting point of 209 to 211 °C.

`CNC(=O)CC(N)=S` gave a melting point of 133 to 135 °C. Under `COc1cc(C#N)cc(Cl)c1O` stands 141 to 143 °C; under `Cc1ccc(CN)cn1`, 59 to 61 °C; under `CCc1ccc(N)c(C(=O)O)c1`, 127 to 129 °C.

The molecule `NCC1(O)CCSCC1` came in with a melting point of 65 to 67 °C.

Molecule `CCNS(=O)(=O)c1ccc(I)cc1` displayed a melting point of 112 to 114 °C. The figure for `O=C(O)CCc1nc2cc(Cl)ccc2s1` is 145 to 147 °C. In the case of `[N-]=[N+]=NCC(=O)NCc1ccccc1`, the melting point lay in the range of 39 to 41 °C.

`O=c1c(-c2ccccc2)coc2cc(O)ccc12`: the melting point is 201 to 203 °C. In the case of `COCc1nc(C)c(C(=O)O)s1`, the melting point was 159 to 161 °C. Under `CCN(CC)c1ccnc(NN)n1` stands 84 to 86 °C; under `Nc1sccc1C(=O)NC1CC1`, 144 to 146 °C.

`Cc1nccn1Cc1ccc(N)cc1` returned a melting point of 159 to 161 °C. Under `Cc1cc(NS(=O)(=O)c2cccc(C#N)c2)no1` stands 159 to 161 °C; under `O=C(O)CC1CCOCC1`, 59 to 61 °C; under `O=S(=O)(F)CCn1nnc(-c2ccccc2)n1`, 97 to 99 °C.

The molecule `CC1Nc2ncccc2NC1=O` (stereo not drawn) yielded a melting point of 272 to 274 °C. The figure for `COc1cccc(-c2nn(Cc3ccccc3)cc2C(=O)O)c1` is 174 to 176 °C; for `Cn1cncc1CO` it is 112 to 114 °C. As to `CC(C)C(C(=O)O)n1cncn1` (stereo not drawn), the melting point lay within 177 to 179 °C. The molecule `COc1ccc(S(=O)(=O)N2CCOCC2)cc1N` yielded a melting point of 189 to 191 °C. Under `NNC(=O)Cn1cnc2ccccc21` stands 108 to 110 °C; under `O=C(O)c1csc(-c2ccc(O)cc2)n1`, 214 to 216 °C.

The molecule `O=C(O)C=Cc1ccc(S(=O)(=O)NCc2ccco2)cc1` registered a melting point of 213 to 215 °C. Under `Cc1n[nH]c(-c2ccccn2)n1` stands 167 to 169 °C; under `NS(=O)(=O)c1cc(C(=O)O)ccc1Br`, 275 to 277 °C; under `COc1coc(CO)cc1=O`, 163 to 165 °C. The figure for `O=C(O)CCCNCc1ccccn1` is 69 to 71 °C. Under `CC(C)Cc1ccc(C(=O)CCC(=O)O)cc1` stands 113 to 115 °C; under `Cc1sc2ccccc2c1S(=O)(=O)Cl`, 117 to 119 °C. Molecule `Cc1nc(Cc2ccccc2)sc1C(=O)O` displayed a melting point of 236 to 238 °C. Under `O=C(O)c1ccccc1NCc1cccnc1` stands 189 to 191 °C; under `COC(=O)c1ncccc1O`, 76 to 78 °C. The figure for `NC(=O)c1cc(-c2ccccc2)on1` is 202 to 204 °C; for `CC(C)(C)OC(=O)NC(C(=O)O)c1cccc(Cl)c1` (stereo not drawn) it is 128 to 130 °C. `CC(C)CN1CC(C(=O)O)CC1=O` (stereo not drawn) showed a melting point of 83 to 85 °C. Under `S=c1[nH]nnn1-c1ccc(Br)cc1` stands 162 to 164 °C.

The molecule `O=C(O)c1cnn2c(-c3ccccc3)ccnc12` showed a melting point of 228 to 230 °C.

The molecule `O=C(O)c1cc(S(=O)(=O)N2CCCCC2)ccc1Cl` registered a melting point of 214 to 216 °C. In turn, `O=Cc1cn(-c2ccccc2)nc1-c1ccc(Br)cc1` showed a melting point of 141 to 143 °C. Under `Nc1cccc(Oc2cnccn2)c1` stands 89 to 91 °C; under `Cc1cccc(C)c1NC(=O)CCCCl`, 104 to 106 °C. Take `NCC(=O)Nc1cccc(F)c1`: the melting point fell in the range of 82 to 84 °C. `O=C(O)CNC(=O)c1ccncc1` came in with a melting point of 230 to 232 °C. The molecule `CC(=O)c1ccc(NC(=O)c2ccc(C#N)cc2)cc1` showed a melting point of 228 to 230 °C.

On to `COC(=O)c1sc(N2CCOCC2)nc1N`, for which the melting point was 156 to 158 °C. Under `Sc1ncnc2ccccc12` stands 293 to 295 °C. In the case of `Nc1ccc(Cc2nnc3ccccn23)cc1`, the melting point was in the range of 207 to 209 °C. In turn, `O=C(O)c1ccncc1N1CCOCC1` displayed a melting point of 201 to 203 °C. Under `CC(=O)CC(=O)Nc1ccc(I)cc1` stands 142 to 144 °C. Molecule `CS(=O)(=O)Nc1cc(N)ccc1F` yielded a melting point of 154 to 156 °C. The figure for `CC(C)S(=O)(=O)C(C)C(=O)O` (stereo not drawn) is 96 to 98 °C.

`Clc1cc2ccccc2c(Cl)n1` gave a melting point of 100 to 102 °C. The figure for `CC1=NN(c2ccc(F)cc2)C(=O)C1` is 148 to 150 °C; for `COc1ccc(C2(C(=O)O)CCOCC2)cc1` it is 167 to 169 °C; for `O=C(O)c1cc(Cl)nc(Oc2ccc(Br)cc2)c1` it is 213 to 215 °C. `O=c1[nH]c(=O)c2cc(S(=O)(=O)Cl)cnc2[nH]1`: the melting point lay in the range of 311 to 313 °C. The figure for `O=C(O)CCN1C(=O)CSc2ccccc21` is 144 to 146 °C; for `COc1cc2nc(C)oc(=O)c2cc1OC` it is 187 to 189 °C; for `CNc1cn[nH]c(=O)c1` it is 279 to 281 °C. Turning to `O=C(O)c1cccnc1Oc1ccc(Cl)cc1Cl`, the melting point was 191 to 193 °C. The figure for `NC(=O)C1Cc2cc(S(N)(=O)=O)ccc2O1` (stereo not drawn) is 223 to 225 °C. Molecule `CC(Sc1nncn1C)C(=O)O` (stereo not drawn) gave a melting point of 157 to 159 °C. Under `CC(NC(=O)OC(C)(C)C)c1ccc(CN)cc1` (stereo not drawn) stands 78 to 80 °C; under `CC1CN(Cc2ccc(C(=O)O)cc2)CCO1` (stereo not drawn), 186 to 188 °C; under `NC(=O)C1CCCC(N)C1` (stereo not drawn), 132 to 134 °C. Take `NNC(=O)Cc1ccccn1`: the melting point lay within 111 to 113 °C.

On to `CN1CCOC(C(=O)c2ccc(Cl)cc2)C1` (stereo not drawn), for which the melting point is 59 to 61 °C. Under `Cc1nc(Cl)ccc1CC(=O)O` stands 134 to 136 °C; under `N#CC1(CS(N)(=O)=O)CC1`, 109 to 111 °C; under `CC(C)(C)OC(=O)N1CCN(c2ccc(CN)cc2F)CC1`, 69 to 71 °C. Molecule `COCCOc1cccc(CNC(=O)CCl)c1` showed a melting point of 90 to 92 °C. In the case of `CCOC(=O)c1ccn2nc3ncccc3c2n1`, the melting point lay in the range of 209 to 211 °C. Turning to `COc1ccc(C(=O)c2ccc(Cl)cc2)cc1C`, the melting point is 121 to 123 °C. Under `COc1cc(C(=O)O)ccc1OC(C)=O` stands 144 to 146 °C; under `Cc1cc([N+](=O)[O-])cnc1N1CCCCC1C` (stereo not drawn), 48 to 50 °C; under `CCCOc1cc(C=O)ccc1OC`, 35 to 37 °C. Consider `CC=Cc1ccc(OCC(=O)OC)c(OC)c1`, for which the melting point lay within 68 to 70 °C. Molecule `Cc1ccc(-c2ncco2)cc1N` returned a melting point of 89 to 91 °C. `Cc1cc(C(=O)O)cc(S(C)(=O)=O)c1F` gave a melting point of 229 to 231 °C.

On to `CCc1cc(Cl)n2nc(C(=O)OC)nc2n1`, for which the melting point fell in the range of 179 to 181 °C. `CC1(c2c(F)cccc2F)NC(=O)NC1=O` (stereo not drawn): the melting point is 215 to 217 °C. The figure for `CC(=O)c1ccc(OCC(=O)N2CCCC2)cc1` is 122 to 124 °C; for `CC(C)NC(=O)CN1CCCNCC1` it is 43 to 45 °C; for `CC(NC(=O)OC(C)(C)C)C1CCNCC1` (stereo not drawn) it is 103 to 105 °C. On to `COC(=O)c1ccc(OC)cc1N`, for which the melting point lay in the range of 76 to 78 °C.

In turn, `CC(C)Cc1ccc(-c2csc(N)n2)cc1` registered a melting point of 108 to 110 °C. Under `COC(=O)C1=NN(c2ccccc2)C(c2ccccc2)C1` (stereo not drawn) stands 125 to 127 °C; under `Cc1[nH]oc(=N)c1-c1cccc(Cl)c1`, 148 to 150 °C. Take `ClCc1csc(-c2ccccc2Cl)n1`: the melting point lay within 55 to 57 °C. `CN(C)c1ccc(Cn2nccc2N)cc1` had a melting point of 60 to 62 °C. The figure for `COC(=O)c1[nH]c(C)cc1N` is 128 to 130 °C; for `CCCCCCCCCCCCSc1nc2ccccc2c(=O)n1-c1ccccc1` it is 62 to 64 °C; for `Cc1ccc(C(C)C)c2c1C(=O)CCO2` it is 36 to 38 °C.

As to `O=C(O)CSc1ncnc2scc(-c3ccccc3)c12`, the melting point lay in the range of 186 to 188 °C.

As to `O=C(O)[C@@H](Cl)c1ccccc1`, the melting point lay within 56 to 58 °C. Molecule `COc1cc(-n2cnnn2)c(Cl)cc1C(=O)O` showed a melting point of 331 to 333 °C.

As for `CC(N)c1ccccc1-c1ccccc1` (stereo not drawn), the melting point is 76 to 78 °C. The figure for `ClCc1coc(-c2ccc(Cl)cc2)n1` is 91 to 93 °C; for `OC(c1cccc(F)c1)c1ccccn1` (stereo not drawn) it is 78 to 80 °C; for `CC(CO)NC(=O)c1ccc(N)cc1` (stereo not drawn) it is 174 to 176 °C. Under `O=C(O)CCS(=O)(=O)c1ccc2c(c1)OCCCO2` stands 109 to 111 °C; under `Cc1nn(C)c2sc(C(=O)NC(C)C(=O)O)cc12` (stereo not drawn), 269 to 271 °C.
